Assay results published in patent US20020026053A1, “Novel 3-(substituted) -2- indolinones compounds and use thereof as inhibitors of protein kinase activity” (priority 1997, published 2002).

Biological target: T1, EGFR (Homo sapiens, UniProt P00533)
T1 construct: endogenous in cells; host or cells: A431 cells (lysate, captured with SUMO1 anti-EGFR antibody)
Assay: Biochemical EGFR Assay
Parameters: concentration or dose not given beside the values
Protocol: This assay measures the in vitro kinase activity of EGFR using ELISA.
1. Corning 96-well Elisa plates (Corning Catalog No. 25805-96).
2. SUMO1 monoclonal anti-EGFR antibody (Biochemistry Lab, SUGEN, Inc.).
3. PBS (Dulbecco's Phosphate-Buffered Saline, Gibco Catalog No. 450-1300EB).
6. A431 cell lysate (Screening Lab, SUGEN, Inc.)
9. Adenosine-5′-triphosphate (ATP, from Equine muscle, Sigma Cat. No. A-5394).
Prepare a 1.0 mM solution in dH2O. This reagent should be made up immediately prior to use and kept on ice.
Prepare a 1.0 M stock solution in dH2O.
11. ATP/MnCl2 phosphorylation mix
This reagent should be prepared immediately before use and kept on ice
12. NUNC 96-well V bottom polypropylene plates (Applied Scientific Cat. No. AS-72092).
13. Ethylenediaminetetraacetic acid (EDTA)
Prepare 200 mM working solution in dH2O. Adjust to pH 8.0 with 10 N NaOH.
14. Rabbit polyclonal anti-phosphotyrosine serum (Biochemistry Lab, SUGEN, Inc.)
15. Goat anti-rabbit IgG peroxidase conjugate (Biosource Cat. No. ALI0404)
16. ABTS (2,2′-azino-bis(3-ethylbenzthiazoline-6-sulfonic acid), Sigma Cat. No. A-1888).
Mix first two ingredients in about 900 ml dH2O, adjust pH to 4.0 with phosphoric acid. Add ABTS, cover, let sit about 0.5 hr., filter. The solution should be kept in the dark at 4° C. until ready to use.
17. Hydrogen peroxide 30% solution (Fisher Cat. No. H325)
Mix 15 ml ABTS solution and 2.0 μl H2O2. Prepare 5 minutes before use.
1. Coat Corning 96 well ELISA plates with 0.5 μg SUMO1 in 100 μl PBS per well, store overnight at 4° C.
2. Remove unbound SUMO1 from wells by inverting plate to remove liquid. Wash 1× with dH2O. Pat the plate on a paper towel to remove excess liquid.
3. Add 150 μl of Blocking Buffer to each well. Incubate for 30 min. at room temperature with shaking.
4. Wash plate 3× with deionized water, then once with TBST. Pat plate on a paper towel to remove excess liquid and bubbles.
5. Dilute lysate in PBS (7 μg lysate/100 μl PBS)
6. Add 100 μl of diluted lysate to each well. Shake at room temperature for 60 min.
7. Wash plates as described in 4, above.
8. Add 120 μl TBS to ELISA plate containing captured EGFR.
9. Dilute test compound 1:10 in TBS in 96-well polypropylene plates (ie. 10 μl compound+90 μl TBS).
10. Add 13.5 μl diluted test compound to ELISA plate.
11. Incubate for 30 minutes while shaking at room temperature.
13. After 5 minutes, stop reaction by adding 16.5 μl of 200 mM EDTA (pH 8.0) to each well, shaking continuously. After the EDTA has been added, shake for 1 min.
14. Wash 4× with deionized water, twice with TBST.
15. Add 100 μl anti-phosphotyrosine (1:3000 dilution in TBST) per well. Incubate 30-45 min. at room temperature, with shaking.
16. Wash as described in 4, above.
17. Add 100 μl Biosource Goat anti-rabbit IgG peroxidase conjugate (1:2000 dilution in TBST) to each well. Incubate 30 min. at room temperature, with shaking.
18. Wash as described in 4, above.
19. Add 100 μl of ABTS/H2O2 solution to each well.
20. Incubate 5 to 10 minutes with shaking. Remove any bubbles.
21. If necessary stop reaction with the addition of 100 μl 0.2 M HCl per well.
22. Read assay on Dynatech MR7000 ELISA reader. Test Filter: 410 nM Reference Filter: 630 nM

T1 sequence (P00533 25-1210): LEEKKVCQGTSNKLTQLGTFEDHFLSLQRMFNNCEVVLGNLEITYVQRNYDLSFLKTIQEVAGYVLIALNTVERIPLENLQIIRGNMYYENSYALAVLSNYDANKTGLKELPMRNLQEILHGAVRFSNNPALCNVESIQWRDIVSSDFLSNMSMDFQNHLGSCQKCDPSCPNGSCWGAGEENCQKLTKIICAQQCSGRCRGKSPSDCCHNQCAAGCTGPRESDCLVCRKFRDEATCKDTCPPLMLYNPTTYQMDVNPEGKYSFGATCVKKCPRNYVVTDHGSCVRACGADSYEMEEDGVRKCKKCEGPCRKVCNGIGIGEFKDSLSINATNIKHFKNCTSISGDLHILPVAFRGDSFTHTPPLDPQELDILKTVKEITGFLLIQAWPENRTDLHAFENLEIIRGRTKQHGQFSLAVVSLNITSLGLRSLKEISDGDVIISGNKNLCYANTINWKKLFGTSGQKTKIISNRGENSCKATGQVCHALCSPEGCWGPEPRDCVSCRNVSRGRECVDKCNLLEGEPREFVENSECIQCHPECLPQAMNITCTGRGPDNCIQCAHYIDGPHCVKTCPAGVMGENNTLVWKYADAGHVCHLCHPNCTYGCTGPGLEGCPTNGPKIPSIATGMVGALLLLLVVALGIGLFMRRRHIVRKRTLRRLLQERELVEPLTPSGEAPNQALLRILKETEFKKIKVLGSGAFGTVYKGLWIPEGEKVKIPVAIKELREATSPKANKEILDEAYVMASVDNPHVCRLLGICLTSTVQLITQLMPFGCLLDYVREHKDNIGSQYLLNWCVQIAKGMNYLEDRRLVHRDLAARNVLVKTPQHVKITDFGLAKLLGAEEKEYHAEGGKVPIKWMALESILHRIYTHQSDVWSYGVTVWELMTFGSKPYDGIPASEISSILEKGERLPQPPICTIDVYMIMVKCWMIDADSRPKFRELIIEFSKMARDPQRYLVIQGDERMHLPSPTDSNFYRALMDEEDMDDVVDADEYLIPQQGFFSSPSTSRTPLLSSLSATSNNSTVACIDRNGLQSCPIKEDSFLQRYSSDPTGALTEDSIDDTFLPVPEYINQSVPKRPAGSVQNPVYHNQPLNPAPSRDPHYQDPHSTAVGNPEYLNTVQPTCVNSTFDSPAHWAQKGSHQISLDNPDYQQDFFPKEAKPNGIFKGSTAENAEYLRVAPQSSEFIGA

Row | SMILES | Biochem EGFR % Inhibition (P.167) [%]
1 | CCOC(=O)c1c(C)[nH]c(C=C2C(=O)Nc3c(Br)cc(Br)c(C)c32)c1C [10718/H02] | −22.5
2 | COc1cc(Br)c(O)c(C=C2C(=O)Nc3c(Br)cc(Br)c(C)c32)c1 [10718/H03] | 33.2
3 | Cc1c(Br)cc(Br)c2c1C(=Cc1ccc3ccccc3c1O)C(=O)N2 [10718/H04] | 13.7
4 | CCOC(=O)CCc1c(C(=O)OCC)[nH]c(C=C2C(=O)Nc3c(Br)cc(Br)c(C)c32)c1CC(=O)OCC [10718/H05] | 0.2
5 | CCOC(=O)c1cc(C=C2C(=O)Nc3c(Br)cc(Br)c(C)c32)oc1C [10718/H06] | −5.1
6 | COC(=O)c1[nH]c(C)c(C=C2C(=O)Nc3c(Br)cc(Br)c(C)c32)c1C(=O)OC [10718/H07] | −12.0
7 | Cc1c(Br)cc(Br)c2c1C(=Cc1ccc(Cl)c([N+](=O)[O-])c1)C(=O)N2 [10718/H08] | −2.5
8 | CCOc1cccc(C=C2C(=O)Nc3c(Br)cc(Br)cc32)c1O [10734/A02] | 0.0
9 | O=C1Nc2c(Br)cc(Br)cc2C1=Cc1cc(Cl)cc(Cl)c1O [10734/A03] | 18.5
10 | O=C1Nc2c(Br)cc(Br)cc2C1=Cc1cc(Cl)ccc1O [10734/A04] | 11.4
11 | CCN(CC)c1ccc(C=C2C(=O)Nc3c(Br)cc(Br)cc32)c(O)c1 [10734/A05] | 22.6
12 | O=C1Nc2c(Br)cc(Br)cc2C1=Cc1ccc([N+](=O)[O-])cc1 [10734/A06] | −6.4
13 | O=C1Nc2c(Br)cc(Br)cc2C1=Cc1cc(Br)cc(Br)c1O [10734/A07] | 15.2
14 | O=C1Nc2c(Br)cc(Br)cc2C1=Cc1cccc(F)c1O [10734/A08] | 6.8
15 | O=C1Nc2c(Br)cc(Br)cc2C1=Cc1ccc(O)c(Br)c1 [10734/A09] | 27.3
16 | CC(C)(C)c1ccc(C=C2C(=O)Nc3c(Br)cc(Br)cc32)cc1 [10734/A10] | 27.8
17 | O=C1Nc2c(Br)cc(Br)cc2C1=Cc1ccc(Br)s1 [10734/A11] | 12.5
18 | CCOc1cccc(C=C2C(=O)Nc3ccc(I)cc32)c1O [10734/B02] | −8.9
19 | O=C1Nc2ccc(I)cc2C1=Cc1cc(Cl)cc(Cl)c1O [10734/B03] | 45.1
20 | O=C1Nc2ccc(I)cc2C1=Cc1cc(Cl)ccc1O [10734/B04] | 38.7

Row | SMILES | Biochem EGFR % Inhibition (P.167) [%]
21 | CCN(CC)c1ccc(C=C2C(=O)Nc3ccc(I)cc32)c(O)c1 [10734/B05] | 17.8
22 | O=C1Nc2ccc(I)cc2C1=Cc1ccc([N+](=O)[O-])cc1 [10734/B06] | 54.0
23 | O=C1Nc2ccc(I)cc2C1=Cc1cc(Br)cc(Br)c1O [10734/B07] | 65.5
24 | O=C1Nc2ccc(I)cc2C1=Cc1cccc(F)c1O [10734/B08] | 19.3
25 | O=C1Nc2ccc(I)cc2C1=Cc1ccc(O)c(Br)c1 [10734/B09] | 34.9
26 | CC(C)(C)c1ccc(C=C2C(=O)Nc3ccc(I)cc32)cc1 [10734/B10] | 60.7
27 | O=C1Nc2ccc(I)cc2C1=Cc1ccc(Br)s1 [10734/B11] | 50.9
28 | CCOc1cccc(C=C2C(=O)Nc3ccc(Br)c(C)c32)c1O [10734/C02] | −6.7
29 | Cc1c(Br)ccc2c1C(=Cc1cc(Cl)cc(Cl)c1O)C(=O)N2 [10734/C03] | 48.6
30 | Cc1c(Br)ccc2c1C(=Cc1cc(Cl)ccc1O)C(=O)N2 [10734/C04] | 38.1
31 | CCN(CC)c1ccc(C=C2C(=O)Nc3ccc(Br)c(C)c32)c(O)c1 [10734/C05] | 9.3
32 | Cc1c(Br)ccc2c1C(=Cc1ccc([N+](=O)[O-])cc1)C(=O)N2 [10734/C06] | 18.4
33 | Cc1c(Br)ccc2c1C(=Cc1cc(Br)cc(Br)c1O)C(=O)N2 [10734/C07] | 41.0
34 | Cc1c(Br)ccc2c1C(=Cc1cccc(F)c1O)C(=O)N2 [10734/C08] | 35.1
35 | Cc1c(Br)ccc2c1C(=Cc1ccc(O)c(Br)c1)C(=O)N2 [10734/C09] | 36.2
36 | Cc1c(Br)ccc2c1C(=Cc1ccc(C(C)(C)C)cc1)C(=O)N2 [10734/C10] | 24.4
37 | Cc1c(Br)ccc2c1C(=Cc1ccc(Br)s1)C(=O)N2 [10734/C11] | 18.0
38 | CCOc1cccc(C=C2C(=O)Nc3ccc(S(=O)(=O)NC)cc32)c1O [10734/D02] | 5.2
39 | CNS(=O)(=O)c1ccc2c(c1)C(=Cc1cc(Cl)cc(Cl)c1O)C(=O)N2 [10734/D03] | 19.6
40 | CNS(=O)(=O)c1ccc2c(c1)C(=Cc1cc(Cl)ccc1O)C(=O)N2 [10734/D04] | −10.7

Row | SMILES | Biochem EGFR % Inhibition (P.167) [%]
41 | CCN(CC)c1ccc(C=C2C(=O)Nc3ccc(S(=O)(=O)NC)cc32)c(O)c1 [10734/D05] | −9.6
42 | CNS(=O)(=O)c1ccc2c(c1)C(=Cc1ccc([N+](=O)[O-])cc1)C(=O)N2 [10734/D06] | 1.3
43 | CNS(=O)(=O)c1ccc2c(c1)C(=Cc1cc(Br)cc(Br)c1O)C(=O)N2 [10734/D07] | 51.1
44 | CNS(=O)(=O)c1ccc2c(c1)C(=Cc1cccc(F)c1O)C(=O)N2 [10734/D08] | −13.7
45 | CNS(=O)(=O)c1ccc2c(c1)C(=Cc1ccc(O)c(Br)c1)C(=O)N2 [10734/D09] | 21.0
46 | CNS(=O)(=O)c1ccc2c(c1)C(=Cc1ccc(C(C)(C)C)cc1)C(=O)N2 [10734/D10] | −4.4
47 | CNS(=O)(=O)c1ccc2c(c1)C(=Cc1ccc(Br)s1)C(=O)N2 [10734/D11] | 14.6
48 | CCOc1cccc(C=C2C(=O)Nc3ccc(S(=O)(=O)Nc4ccc(C(F)(F)F)cc4)cc32)c1O [10734/E02] | −10.8
49 | O=C1Nc2ccc(S(=O)(=O)Nc3ccc(C(F)(F)F)cc3)cc2C1=Cc1cc(Cl)cc(Cl)c1O [10734/E03] | 55.0
50 | O=C1Nc2ccc(S(=O)(=O)Nc3ccc(C(F)(F)F)cc3)cc2C1=Cc1cc(Cl)ccc1O [10734/E04] | −7.8
51 | CCN(CC)c1ccc(C=C2C(=O)Nc3ccc(S(=O)(=O)Nc4ccc(C(F)(F)F)cc4)cc32)c(O)c1 [10734/E05] | 7.9
52 | O=C1Nc2ccc(S(=O)(=O)Nc3ccc(C(F)(F)F)cc3)cc2C1=Cc1ccc([N+](=O)[O-])cc1 [10734/E06] | 6.3
53 | O=C1Nc2ccc(S(=O)(=O)Nc3ccc(C(F)(F)F)cc3)cc2C1=Cc1cc(Br)cc(Br)c1O [10734/E07] | 82.4
54 | O=C1Nc2ccc(S(=O)(=O)Nc3ccc(C(F)(F)F)cc3)cc2C1=Cc1cccc(F)c1O [10734/E08] | 24.2
55 | O=C1Nc2ccc(S(=O)(=O)Nc3ccc(C(F)(F)F)cc3)cc2C1=Cc1ccc(O)c(Br)c1 [10734/E09] | 73.0
56 | CC(C)(C)c1ccc(C=C2C(=O)Nc3ccc(S(=O)(=O)Nc4ccc(C(F)(F)F)cc4)cc32)cc1 [10734/E10] | −5.0
57 | O=C1Nc2ccc(S(=O)(=O)Nc3ccc(C(F)(F)F)cc3)cc2C1=Cc1ccc(Br)s1 [10734/E11] | −8.0
58 | CCOc1cccc(C=C2C(=O)Nc3ccc(S(=O)(=O)N4CCOCC4)cc32)c1O [10734/F02] | 0.7
